≈ marks a conversion by molar mass, not a printed value. Calls of active or inactive are those of the source. The calls are words filed in the database; no cut-off is given here. Numbered stars: 1 amine (or outer) side, 2 acyl side, 3 side chain; on linkers, the order of the positions; unused ones are H or OH. Bridge positions count the residues as written; N and C are the ends. Square brackets hold non-standard residues; d marks the D form. Peptide text beside a SMILES is read from it. I, II: the chains in the order shown. X1 = O=C1CC([*:2])C(=O)N1CCCCCC(=O)[*:1]; Dab = NCC[C@H](N)C(=O)O
Experiments:
[1] = test system: Staphylococcus aureus; test: Antibacterial activity against Staphylococcus aureus ATCC 6538p assessed as inhibition of bacterial growth incubated for 18 to 24 hrs; assay type: functional; conditions: time 18-24 hrs
[2] = test system: Staphylococcus aureus; test: Bactericidal activity against Staphylococcus aureus ATCC 6538p assessed as inhibition of bacterial growth incubated for 18 to 24 hrs; assay type: functional; conditions: time 18-24 hrs
[3] = test system: Staphylococcus aureus; test: Antibacterial activity against Staphylococcus aureus ATCC 12600 assessed as inhibition of bacterial growth incubated for 18 to 24 hrs; assay type: functional; conditions: time 18-24 hrs
[4] = test system: Staphylococcus aureus; test: Bactericidal activity against Staphylococcus aureus ATCC 12600 assessed as inhibition of bacterial growth incubated for 18 to 24 hrs; assay type: functional; conditions: time 18-24 hrs
[5] = test system: Staphylococcus aureus; test: Antibacterial activity against Staphylococcus aureus ATCC 43300 assessed as inhibition of bacterial growth incubated for 18 to 24 hrs; assay type: functional; conditions: time 18-24 hrs
[6] = test system: Staphylococcus aureus; test: Bactericidal activity against Staphylococcus aureus ATCC 43300 assessed as inhibition of bacterial growth incubated for 18 to 24 hrs; assay type: functional; conditions: time 18-24 hrs
[7] = test system: Staphylococcus epidermidis; test: Antibacterial activity against Staphylococcus epidermidis ATCC 12228 assessed as inhibition of bacterial growth incubated for 18 to 24 hrs; assay type: functional; conditions: time 18-24 hrs
[8] = test system: Staphylococcus epidermidis; test: Bactericidal activity against Staphylococcus epidermidis ATCC 12228 assessed as inhibition of bacterial growth incubated for 18 to 24 hrs; assay type: functional; conditions: time 18-24 hrs
[9] = test system: Streptococcus pneumoniae; test: Antibacterial activity against Streptococcus pneumoniae ATCC 49619 assessed as inhibition of bacterial growth incubated for 18 to 24 hrs; assay type: functional; conditions: time 18-24 hrs
[10] = test system: Streptococcus pneumoniae; test: Bactericidal activity against Streptococcus pneumoniae ATCC 49619 assessed as inhibition of bacterial growth incubated for 18 to 24 hrs; assay type: functional; conditions: time 18-24 hrs
[11] = test system: Staphylococcus saprophyticus; test: Antibacterial activity against Staphylococcus saprophyticus ATCC BAA-750 assessed as inhibition of bacterial growth incubated for 18 to 24 hrs; assay type: functional; conditions: time 18-24 hrs
[12] = test system: Staphylococcus saprophyticus; test: Bactericidal activity against Staphylococcus saprophyticus ATCC BAA-750 assessed as inhibition of bacterial growth incubated for 18 to 24 hrs; assay type: functional; conditions: time 18-24 hrs
[13] = test system: Streptococcus mutans; test: Antibacterial activity against Streptococcus mutans UA159 assessed as inhibition of bacterial growth incubated for 18 to 24 hrs; assay type: functional; conditions: time 18-24 hrs
[14] = test system: Streptococcus mutans; test: Bactericidal activity against Streptococcus mutans UA159 assessed as inhibition of bacterial growth incubated for 18 to 24 hrs; assay type: functional; conditions: time 18-24 hrs
[15] = test system: Streptococcus mutans; test: Antibacterial activity against Streptococcus mutans ATCC 25175 assessed as inhibition of bacterial growth incubated for 18 to 24 hrs; assay type: functional; conditions: time 18-24 hrs
[16] = test system: Streptococcus mutans; test: Bactericidal activity against Streptococcus mutans ATCC 25175 assessed as inhibition of bacterial growth incubated for 18 to 24 hrs; assay type: functional; conditions: time 18-24 hrs
[17] = test system: Escherichia coli; test: Antibacterial activity against Escherichia coli ATCC 25922 assessed as inhibition of bacterial growth incubated for 18 to 24 hrs; assay type: functional; conditions: time 18-24 hrs
[18] = test system: Escherichia coli; test: Bactericidal activity against Escherichia coli ATCC 25922 assessed as inhibition of bacterial growth incubated for 18 to 24 hrs; assay type: functional; conditions: time 18-24 hrs
[19] = test system: RAW264.7; test: Cytotoxicity against mouse RAW264.7 cells assessed as cell viability incubated for 48 hrs by MTT assay; assay type: functional
[20] = Binding affinity to AgrC-I extra-loop-I (unknown origin) assessed as dissociation constant incubated for 10 mins by isothermal titration calorimetry analysis
[21] = Binding affinity to AgrC-I extra-loop-II (unknown origin) assessed as dissociation constant incubated for 10 mins by isothermal titration calorimetry analysis
[22] = Binding affinity to AgrC-I extra-loop-III (unknown origin) assessed as dissociation constant incubated for 10 mins by isothermal titration calorimetry analysis
[23] = Binding affinity to AgrC-I extra-loop-I (unknown origin) assessed as change in enthalpy incubated for 10 mins by isothermal titration calorimetry analysis
[24] = Binding affinity to AgrC-I extra-loop-II (unknown origin) assessed as change in enthalpy incubated for 10 mins by isothermal titration calorimetry analysis
[25] = Binding affinity to AgrC-I extra-loop-III (unknown origin) assessed as change in enthalpy incubated for 10 mins by isothermal titration calorimetry analysis
[26] = species on record: Homo sapiens; test: Binding affinity to AgrC-I extra-loop-I (unknown origin) assessed as gibbs free energy change incubated for 10 mins by isothermal titration calorimetry analysis
[27] = species on record: Homo sapiens; test: Binding affinity to AgrC-I extra-loop-II (unknown origin) assessed as gibbs free energy change incubated for 10 mins by isothermal titration calorimetry analysis
[28] = species on record: Homo sapiens; test: Binding affinity to AgrC-I extra-loop-III (unknown origin) assessed as gibbs free energy change incubated for 10 mins by isothermal titration calorimetry analysis
[29] = species on record: Homo sapiens; test: Binding affinity to AgrC-I extra-loop-I (unknown origin) assessed as change in entropy incubated for 10 mins by isothermal titration calorimetry analysis
[30] = species on record: Homo sapiens; test: Binding affinity to AgrC-I extra-loop-II (unknown origin) assessed as change in entropy incubated for 10 mins by isothermal titration calorimetry analysis
[31] = species on record: Homo sapiens; test: Binding affinity to AgrC-I extra-loop-III (unknown origin) assessed as change in entropy incubated for 10 mins by isothermal titration calorimetry analysis
[32] = test system: Staphylococcus aureus; test: Inhibition of biofilm formation in Staphylococcus aureus at 0.78 to 1.56 uM incubated for 24 hrs by crystal violet staining based analysis; assay type: functional, organism-based; conditions: dose 0.78-1.56 µM
[33] = test system: Staphylococcus aureus; test: Antivirulence activity against Staphylococcus aureus assessed as downregulation of RNAIII expression level at 1 to 100 uM incubated for 24 hrs by qRT-PCR analysis; assay type: functional, organism-based; conditions: dose 1-100 µM
[34] = test system: Staphylococcus aureus; test: Antivirulence activity against Staphylococcus aureus assessed as downregulation of hla expression level at 1 to 100 uM incubated for 24 hrs by qRT-PCR analysis; assay type: functional, organism-based; conditions: dose 1-100 µM
[35] = test system: Staphylococcus aureus; test: Antivirulence activity against Staphylococcus aureus assessed as downregulation of psm-alpha expression level at 1 to 100 uM incubated for 24 hrs by qRT-PCR analysis; assay type: functional, organism-based; conditions: dose 1-100 µM
[36] = test system: Erythrocyte; test: Hemolytic activity in rat RBC assessed as hemolysis measured after 20 hrs; assay type: toxicity, cell-based

Compound	MIC [1] [µM]	MBC [2] [µM]	MIC [3] [µM]	MBC [4] [µM]	MIC [5] [µM]	MBC [6] [µM]	MIC [7] [µM]	MBC [8] [µM]	MIC [9] [µM]	MBC [10] [µM]	MIC [11] [µM]	MBC [12] [µM]	MIC [13] [µM]	MBC [14] [µM]	MIC [15] [µM]	MBC [16] [µM]	MIC [17] [µM]	MBC [18] [µM]	inhibition [32]	other results
CC[C@H](C)[C@H](NC(=O)CNC(=O)CCCCCN1C(=O)CC(SC[C@H](N)C(=O)NCC(=O)NCC(=O)N[C@H](C(=O)N[C@@H](CC(N)=O)C(=O)N[C@H]2CCNC(=O)[C@H](CC(C)C)NC(=O)[C@H](CC(C)C)NC(=O)[C@H](Cc3ccccc3)NC(=O)[C@H](C)NC2=O)[C@@H](C)CC)C1=O)C(=O)N[C@@H](CCCCN)C(=O)N[C@@H](CC(N)=O)C(=O)N[C@@H](C)C(=O)N[C@@H](Cc1c[nH]c2ccccc12)C(=O)N[C@@H](CCCCN)C(=O)N[C@@H](C)C(=O)N[C@@H](CCSC)C(=O)N[C@H](C(=O)N[C@@H](CCCCN)C(=O)N[C@@H](C)C(=O)N[C@@H](Cc1c[nH]c2ccccc12)C(=O)N[C@@H](Cc1ccc(O)cc1)C(=O)O)[C@@H](C)CC (stereo partly drawn) (I: GIKNAWKAMIKAWY-OH / II: H-CGGIN[Dab]AFLL; linker I:N-II:1 via X1; lactam II:6-II:C)	6.25 (≈ 17.9 µg/mL)	6.25 (≈ 17.9 µg/mL)	6.25 (≈ 17.9 µg/mL)	6.25 (≈ 17.9 µg/mL)	6.25 (≈ 17.9 µg/mL)	12.5 (≈ 35.8 µg/mL)	3.13 (≈ 8.96 µg/mL)	6.13 (≈ 17.5 µg/mL)	12.5 (≈ 35.8 µg/mL)	12.5 (≈ 35.8 µg/mL)	6.25 (≈ 17.9 µg/mL)	12.5 (≈ 35.8 µg/mL)	6.25 (≈ 17.9 µg/mL)	12.5 (≈ 35.8 µg/mL)	3.13 (≈ 8.96 µg/mL)	3.13 (≈ 8.96 µg/mL)	6.25 (≈ 17.9 µg/mL)	6.25 (≈ 17.9 µg/mL)	–	CC50 [19]: 105 µM
CC[C@H](C)[C@H](N)C(=O)N[C@@H](CC(N)=O)C(=O)N[C@@H](CCN)C(=O)N[C@@H](C)C(=O)N[C@@H](Cc1ccccc1)C(=O)N[C@@H](CC(C)C)C(=O)N[C@@H](CC(C)C)C(=O)NCC(=O)NCC(=O)NCC(=O)N[C@H](C(=O)N[C@@H](CCCCN)C(=O)N[C@@H](CC(N)=O)C(=O)N[C@@H](CC(C)C)C(=O)N[C@@H](Cc1c[nH]c2ccccc12)C(=O)N[C@@H](CCCCN)C(=O)N[C@@H](CCCCN)C(=O)N[C@@H](CCSC)C(=O)N[C@H](C(=O)N[C@@H](CCCCN)C(=O)N[C@@H](CC(C)C)C(=O)N[C@@H](Cc1c[nH]c2ccccc12)C(=O)N[C@@H](Cc1ccc(O)cc1)C(=O)O)[C@@H](C)CC)[C@@H](C)CC (H-IN[Dab]AFLLGGGIKNLWKKMIKLWY-OH)	3.13 (≈ 8.47 µg/mL)	6.25 (≈ 16.9 µg/mL)	3.13 (≈ 8.47 µg/mL)	6.25 (≈ 16.9 µg/mL)	6.25 (≈ 16.9 µg/mL)	12.5 (≈ 33.8 µg/mL)	1.56 (≈ 4.22 µg/mL)	3.13 (≈ 8.47 µg/mL)	6.25 (≈ 16.9 µg/mL)	12.5 (≈ 33.8 µg/mL)	3.13 (≈ 8.47 µg/mL)	3.13 (≈ 8.47 µg/mL)	6.25 (≈ 16.9 µg/mL)	12.5 (≈ 33.8 µg/mL)	6.25 (≈ 16.9 µg/mL)	6.25 (≈ 16.9 µg/mL)	3.13 (≈ 8.47 µg/mL)	6.25 (≈ 16.9 µg/mL)	Active	Kd [20]: 0.00205 µM; Kd [21]: 3780 µM; Kd [22]: 0.139 µM; deltaH [23]: 9.06 kcal/mol; deltaH [24]: -15.6 kcal/mol; deltaH [25]: -80 kcal/mol; deltaG [26]: -11.8 kcal/mol; deltaG [27]: -3.31 kcal/mol; deltaG [28]: -9.36 kcal/mol; -TdeltaS [29]: -20.9 kcal/mol; -TdeltaS [30]: 12.3 kcal/mol; -TdeltaS [31]: 70.6 kcal/mol
H-LGAKAGGGIKNLWKKMIKLWY-OH	3.13	3.13	3.13	3.13	6.25	6.25	1.56	3.13	6.25	25	3.13	6.25	6.25	6.25	3.13	3.13	6.25	12.5	Active	Activity [33]: inactive; Activity [34]: inactive; Activity [35]: inactive; Activity [36]: Non-Toxic
